One test addresses PIM-3 kinase (Homo sapiens, UniProt Q86V86). The test can be described thus: Measurement of PIM-3 kinase inhibitory activity (fluorescent substrate peptide, capillary electrophoresis). Type of test: biochemical. The settings on record: 30 μM ATP, 2 hours at room temperature. As for the experimental part: 1.5 μM of fluorescent substrate peptide (FAM-AKRRRLSSLRA-COOH), 30 μM of ATP, and 0.0833 ng/μL of PIM-3 kinase were incubated with a compound for 2 hours at room temperature, and the Pim-3 kinase activity was measured. The reaction was quantified by separating the substrate and phosphorylation reaction product by capillary electrophoresis (using a Perkin-Elmer EZ reader II) based on the difference in their charges. The results are shown below in Tables 1 and 2.

The test system of test [1] is MiaPaca-2. As to the kind of experiment: Growth inhibitory activity on human pancreatic cancer cell lines (Example 2, WST-8). The class given is cell-based. The settings on record: Homo sapiens, MIA PaCa-2; cultured for 96 hours, 2000 cells/well. Here is the method: (§1) Two thousand cells of human pancreatic cancer cells lines (L3.6pl, MiaPaca-2, PANC-1, PCI35, PCI66) were seeded in a medium volume of 100 μL in each well of a 96-well microtiter plate. The medium was removed after 18 hours, and 100 μL/well of medium containing the test compound was added. Culture was continued for 72 or 96 hours. The medium containing the test compound was removed, and 100 μL/well of medium containing 10% WST-8 (Dojindo Laboratories Cell Counting kit-8) was added. After culturing for one hour, the OD 450 nm absorbance was measured, and the cell growth inhibitory activity was calculated. Furthermore, RPMI-1640 medium (Sigma) was used as the medium with 10% fetal calf serum (Invitrogen), 50 U/mL penicillin G (Sigma), and 50 μg/mL streptomycin (Sigma) added. The cell lines were cultured at 37° C. in a carbon dioxide incubator with a carbon dioxide concentration of 5%.
(§2) Tables 3 and 4 show the results of compound evaluation when cultured for 96 hours.

For test [2], the system named is PCI35. The description is as above. The class given is cell-based. As to conditions: cultured for 96 hours, 2000 cells/well. Here is the method:
as §1, §2

For test [3], the system named is PCI66. The test is described as above. Type of test: cell-based. The settings on record: cultured for 96 hours, 2000 cells/well. As for the experimental part:
as §1, §2

For another test, the system named is PCI66 cells. The test can be described thus: Animal study: subcutaneous PCI66 tumor in nude mice. The settings on record: 30 mg/kg intraperitoneal, once a day for five days then two days off, three cycles, from day 14 after tumor injection. The class given is in vivo, BALB/c nu/nu mice. As for the experimental part:
PCI66 cells, which are human pancreatic cancer cells, were suspended in Hanks balanced salt solution in a concentration of 2×10^7 cells/mL, and 100 μL of the cell suspension was injected subcutaneously to the backs of BALB/c nu/nu mice (SLC, Shizuoka, Japan). Drug administration was begun 14 days after tumor injection. The drug was administered once a day for five days intraperitoneally, then withheld for two days. This cycle was repeated three times. The tumor volume was calculated by the following formula.
Tumor volume(cm^3)=[maximum diameter](cm)×[minimum diameter]^2(cm)/2

The subject of a further test is L3.6pl. The test can be described thus: Growth inhibitory activity on human pancreatic cancer cell lines (Example 4, WST-8). Type of test: cell-based. The settings on record: Example 4: 72 hours, 3000 cells/well. As for the experimental part:
(§3) Three thousand cells of human pancreatic cancer cell lines (L3.6pl, MiaPaca-2, PANC-1, PCI35, and PCI66) were seeded in a medium volume of 90 μL in each well of a 96-well microtiter plate. After 24 hours, 10 μL/well of medium containing the test compound was added. Culture was continued for 72 hours, and 10 μL/well of WST-8 (Dojindo Laboratories Cell Counting kit-8) was added. After culturing for 2 hours, the OD 450 nm absorbance was measured, and the cell growth inhibitory effect was calculated. The cell lines were cultured in a carbon dioxide incubator with a carbon dioxide concentration of 5%.

Test [4] relates to MiaPaca-2. Described as above. The class given is cell-based. The settings on record: MIA PaCa-2, Example 4: 72 hours, 3000 cells/well. As for the experimental part:
as §3

A further test deals with PANC-1. Described as above. The settings on record: Example 4: 72 hours, 3000 cells/well. The class given is cell-based. Here is the method:
as §3

In test [5] the test system is PCI35. The description is as above. The class given is cell-based. As to conditions: Example 4: 72 hours, 3000 cells/well. Here is the method: as §3
The subject of test [6] is PCI66. Described as above. The settings on record: Example 4: 72 hours, 3000 cells/well. Type of test: cell-based. As for the experimental part:
as §3

Take `COc1ccc2c(c1C(C)N1CCNCC1)O/C(=C\c1n[nH]c3ncccc13)C2=O` (centres unmarked) [Compound 6, (Z)-2-[(1H-pyrazolo[3,4-b]pyridin-3-yl)methylene]-6-methoxy-7-[1-(piperazin-1-yl)ethyl]benzofuran-3(2H)-one]: the IC50 came to 0.0076 µM on PIM-3 kinase, 1.6 µM with MiaPaca-2 [1], 1.8 µM with PCI35 [2] and 1.8 µM with PCI66 [3]. Further, the tumor volume result in the test on PCI66 cells was “suppress an increase in tumor volume”.
As for `COc1ccc2c(c1CN1CC3CCC(C1)N3)O/C(=C\c1n[nH]c3ncccc13)C2=O` [Compound 25, (Z)-2-[(1H-pyrazolo[3,4-b]pyridin-3-yl)methylene]-7-[(3,8-diazabicyclo[3.2.1]octan-3-yl)methyl]-6-methoxybenzofuran-3(2H)-one], the IC50 came to 0.00029 µM on PIM-3 kinase; 2.9 µM in the test on L3.6pl; 1.8 µM in the test on MiaPaca-2 [4]; 9.7 µM in the test on PANC-1; 2.8 µM in the test with PCI35 [5]; 3.6 µM with PCI66 [6].
In the case of `O=C1/C(=C/c2n[nH]c3ncccc23)Oc2c1ccc(F)c2CC1CCNCC1` [Compound 29, (Z)-2-[(1H-pyrazolo[3,4-b]pyridin-3-yl)methylene]-6-fluoro-7-(piperidin-4-ylmethyl)benzofuran-3(2H)-one], the IC50 amounted to 0.0045 µM on PIM-3 kinase; 3.8 µM in the test with L3.6pl; 3.5 µM in the test with MiaPaca-2 [4]; 3.3 µM in the test on PANC-1; 6.8 µM in the test on PCI35 [5]; 3.9 µM with PCI66 [6].
`COc1ccc2c(c1CN1CCC[C@H](N)C1)O/C(=C\c1n[nH]c3ncccc13)C2=O` [Compound 32, (S,Z)-2-[(1H-pyrazolo[3,4-b]pyridin-3-yl)methylene]-7-[(3-aminopiperidin-1-yl)methyl]-6-methoxybenzofuran-3(2H)-one]: the IC50 is 0.00051 µM against PIM-3 kinase; 3.3 µM in the test with L3.6pl; 2.9 µM with MiaPaca-2 [4]; 8.1 µM in the test with PANC-1; 5.3 µM in the test on PCI35 [5]; 4.2 µM in the test on PCI66 [6].

These data come from patent US20170145005A1, “KINASE INHIBITOR” (THE UNIVERSITY OF TOKYO, priority 2014, published 2017).
